Literature values, collected in US20210213091A1, “LIPOPHILIC ACTIVE AGENT INFUSED TOBACCO LEAVES AND/OR TOBACCO MATERIALS AND METHODS OF USE THEREOF” (priority 2018, published 2021).

- human pulmonary uptake: 60%
Structure (SMILES): CC1=CC[C@H]2C[C@@H]1C2(C)C [α-Pinene, (1S,5S)-2,6,6-Trimethylbicyclo[3.1.1]hept-2-ene]
